From US9637472B2, “Substituted 6,5-fused bicyclic heteroaryl compounds” (Epizyme, Inc., priority 2011, dated 2017)

Biological target: EZH2 (Homo sapiens (Human), UniProt Q15910)
Experiment: PRC2 enzyme assay on peptide substrates
Format: biochemical
Details: PRC2 enzyme assays on peptide substrates; 4 nM enzyme, 30 min preincubation at 25° C.; read-out: EZH2 IC50

Sequence of EZH2 (Q15910 other isoform, or with tags, fused parts or gaps): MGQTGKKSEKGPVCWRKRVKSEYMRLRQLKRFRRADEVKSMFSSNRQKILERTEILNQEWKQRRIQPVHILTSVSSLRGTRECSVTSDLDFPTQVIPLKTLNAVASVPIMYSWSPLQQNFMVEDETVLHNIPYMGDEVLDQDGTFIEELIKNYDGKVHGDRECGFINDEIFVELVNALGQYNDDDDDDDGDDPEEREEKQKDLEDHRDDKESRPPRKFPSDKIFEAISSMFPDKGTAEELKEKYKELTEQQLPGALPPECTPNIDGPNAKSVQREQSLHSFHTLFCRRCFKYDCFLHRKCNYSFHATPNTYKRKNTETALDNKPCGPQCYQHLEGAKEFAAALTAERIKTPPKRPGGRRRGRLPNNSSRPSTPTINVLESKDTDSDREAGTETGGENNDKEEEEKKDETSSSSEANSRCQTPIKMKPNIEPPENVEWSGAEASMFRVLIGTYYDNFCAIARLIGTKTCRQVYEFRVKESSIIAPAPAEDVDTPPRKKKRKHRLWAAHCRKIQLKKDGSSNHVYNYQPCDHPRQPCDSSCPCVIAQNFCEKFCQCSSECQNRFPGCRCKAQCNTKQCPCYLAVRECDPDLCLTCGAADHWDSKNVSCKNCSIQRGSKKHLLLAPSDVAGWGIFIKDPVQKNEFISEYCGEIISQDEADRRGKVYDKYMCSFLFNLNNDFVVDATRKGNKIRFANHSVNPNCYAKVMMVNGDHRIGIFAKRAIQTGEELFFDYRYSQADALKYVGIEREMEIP
Sequence of EZH2 (O75530 whole entry partner): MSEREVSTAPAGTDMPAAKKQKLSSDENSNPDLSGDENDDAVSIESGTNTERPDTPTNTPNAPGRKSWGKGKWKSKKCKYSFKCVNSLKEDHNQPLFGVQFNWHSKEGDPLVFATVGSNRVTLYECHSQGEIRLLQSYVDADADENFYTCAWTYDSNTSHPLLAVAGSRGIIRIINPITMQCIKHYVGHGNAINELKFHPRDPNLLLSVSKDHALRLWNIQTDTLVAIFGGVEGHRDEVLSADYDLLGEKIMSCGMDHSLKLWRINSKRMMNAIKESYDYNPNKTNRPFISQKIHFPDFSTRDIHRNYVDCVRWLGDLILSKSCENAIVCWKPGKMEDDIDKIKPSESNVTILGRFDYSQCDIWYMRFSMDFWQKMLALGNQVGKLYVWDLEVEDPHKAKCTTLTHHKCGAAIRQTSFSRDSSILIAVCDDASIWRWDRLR
Sequence of EZH2 (Q15022 whole entry partner): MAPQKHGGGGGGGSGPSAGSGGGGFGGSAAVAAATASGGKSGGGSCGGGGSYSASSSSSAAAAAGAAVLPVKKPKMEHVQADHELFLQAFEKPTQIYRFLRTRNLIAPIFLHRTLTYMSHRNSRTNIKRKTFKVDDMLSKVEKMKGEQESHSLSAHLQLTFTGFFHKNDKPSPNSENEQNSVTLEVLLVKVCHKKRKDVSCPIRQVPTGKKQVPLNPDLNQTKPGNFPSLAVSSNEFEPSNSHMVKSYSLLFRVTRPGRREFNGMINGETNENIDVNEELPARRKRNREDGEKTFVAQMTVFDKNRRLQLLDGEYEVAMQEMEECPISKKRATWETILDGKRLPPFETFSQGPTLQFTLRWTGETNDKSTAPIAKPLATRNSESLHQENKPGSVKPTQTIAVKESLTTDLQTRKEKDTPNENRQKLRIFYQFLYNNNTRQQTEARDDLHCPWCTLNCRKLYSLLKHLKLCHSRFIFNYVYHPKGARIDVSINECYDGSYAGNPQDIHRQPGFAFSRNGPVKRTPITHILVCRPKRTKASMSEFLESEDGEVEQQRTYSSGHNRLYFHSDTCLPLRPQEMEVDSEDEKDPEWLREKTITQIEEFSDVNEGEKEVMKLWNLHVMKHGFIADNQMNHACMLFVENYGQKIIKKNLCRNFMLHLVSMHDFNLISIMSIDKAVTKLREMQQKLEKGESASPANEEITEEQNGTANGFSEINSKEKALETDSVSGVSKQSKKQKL
Sequence of EZH2 (Q09028 whole entry partner): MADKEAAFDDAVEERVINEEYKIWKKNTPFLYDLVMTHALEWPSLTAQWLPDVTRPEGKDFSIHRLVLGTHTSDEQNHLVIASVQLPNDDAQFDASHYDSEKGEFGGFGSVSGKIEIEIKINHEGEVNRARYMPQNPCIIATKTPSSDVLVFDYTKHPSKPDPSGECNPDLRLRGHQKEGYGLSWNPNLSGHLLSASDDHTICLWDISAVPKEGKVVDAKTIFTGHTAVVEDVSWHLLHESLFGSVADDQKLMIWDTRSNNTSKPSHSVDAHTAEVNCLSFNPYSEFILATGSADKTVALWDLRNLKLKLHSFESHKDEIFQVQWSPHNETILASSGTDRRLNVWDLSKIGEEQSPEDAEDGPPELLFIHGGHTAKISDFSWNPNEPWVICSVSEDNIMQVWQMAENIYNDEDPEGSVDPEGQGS

## Cc1cc(C)c(CNC(=O)c2cc(-c3ccc(-c4ccccc4CN)nc3)nc3c2cnn3C(C)C)c(=O)[nH]1 [Compound A-68]
  IC50: 3000 to 10000 nM

## Cc1cc(C)c(CNC(=O)c2cc(C3=CCN(C(=O)CN(C)C)CC3)cc3c2cnn3C2CCCC2)c(=O)[nH]1 [Compound D-38]
  IC50: < 300 nM

## 1-cyclopentyl-N-((4,6-dimethyl-2-oxo-1,2-dihydropyridin-3-yl)methyl)-6-(2-ethoxy-4-((4-ethylpiperazin-1-yl)sulfonyl)phenyl)-1H-indazole-4-carboxamide [Compound C-14]
  IC50: < 300 nM

## CCOc1cc(C(=O)NCc2c(C)cc(C)[nH]c2=O)c2cnn(C(C)C)c2n1 [Compound B-112]
  IC50: 1000 to 3000 nM

## Cc1cc(C)c(CNC(=O)c2cc(C3=CC(C)(C)NC(C)(C)C3)nc3c2cnn3CCN(C)C)c(=O)[nH]1 [Compound B-152]
  IC50: 10000 to 50000 nM

## Cc1cc(C)c(CNC(=O)c2cc(-c3ccc(CN4CCC[C@@H]4C(N)=O)cc3)cc3c2cnn3C2CCCC2)c(=O)[nH]1 [Compound C-13, (R)-6-(4-((2-carbamoylpyrrolidin-1-yl)methyl)phenyl)-1-cyclopentyl-N-((4,6-dimethyl-2-oxo-1,2-dihydropyridin-3-yl)methyl)-1H-indazole-4-carboxamide]
  IC50: < 300 nM

## Cc1cc(CN(C)CCN)c(CNC(=O)c2cccc3c2cnn3C2CCCC2)c(=O)[nH]1 [Compound D-76]
  IC50: 1000 to 3000 nM

## Cc1cc(C)c(CNC(=O)c2cc(C(O)CO)nc3c2cnn3C(C)C)c(=O)[nH]1 (stereo not drawn) [Compound B-126]
  IC50: 3000 to 10000 nM

## Cc1cc(C)c(CNC(=O)c2cc(-c3ccc(CN4CCOCC4)cc3)cc3c2ccn3C2CCCC2)c(=O)[nH]1 [Compound E-2]
  IC50: < 300 nM

## Cc1cc(C)c(CNC(=O)c2cc(C3CCN(CCN)CC3)cc3c2cnn3C2CCCC2)c(=O)[nH]1 [Compound D-96]
  IC50: < 300 nM

## Cc1cc(C)c(CNC(=O)c2cc(Br)cc3c2cnn3C2CCN(C(=O)C3CCCCC3)CC2)c(=O)[nH]1 [Compound D-27]
  IC50: 300 to 1000 nM

## Cc1cc(C)c(CNC(=O)c2cc(-c3ccc(CN4CCOCC4)cc3)nc3c2c(Br)nn3C(C)C)c(=O)[nH]1 [Compound A-17, 3-bromo-N-((4,6-dimethyl-2-oxo-1,2-dihydropyridin-3-yl)methyl)-1-isopropyl-6-(4-(morpholinomethyl)phenyl)-1H-pyrazolo[3,4-b]pyridine-4-carboxamide]
  IC50: < 300 nM

## Cc1cc(C)c(CNC(=O)c2cc(-c3ccc(CN(C)C)cc3)nc3c2cnn3C(C)C)c(=O)[nH]1 [Compound A-22]
  IC50: 300 to 1000 nM

## Cc1cc(C)c(CNC(=O)c2cc(CN3CCNC(=O)C3)cc3c2cnn3C2CCCC2)c(=O)[nH]1 [Compound D-94]
  IC50: 300 to 1000 nM

## Cc1cc(C)c(CNC(=O)c2cc(C3CCN(C(=O)C4CN(C)C4)CC3)nc3c2cnn3C(C)C)c(=O)[nH]1 [Compound B-8, N-((4,6-dimethyl-2-oxo-1,2-dihydropyridin-3-yl)methyl)-1-isopropyl-6-(1-(1-methylazetidine-3-carbonyl)piperidin-4-yl)-1H-pyrazolo[3,4-b]pyridine-4-carboxamide]
  IC50: < 300 nM

## Cc1ccc(CNC(=O)c2cc(-c3ccc(N4CCN(C)CC4)nc3)nc3c2cnn3C(C)C)c(=O)[nH]1 [Compound A-60]
  IC50: 1000 to 3000 nM

## Cc1cc(C)c(CNC(=O)c2cc(-c3cccc(CN(C)CCN)c3)nc3c2cnn3C(C)C)c(=O)[nH]1 [Compound A-34]
  IC50: 300 to 1000 nM

## Cc1cc(C)c(CNC(=O)c2cc(-c3cccc(CN(C)CCO)c3)cc3c2cnn3C2CCCC2)c(=O)[nH]1 [Compound C-29]
  IC50: < 300 nM

## Cc1cc(C)c(CNC(=O)c2cc(C3=CCCCC3)nc3c2cnn3C(C)C)c(=O)[nH]1 [Compound B-81]
  IC50: 300 to 1000 nM

## Cc1cc(C)c(CNC(=O)c2cc(C3CCN(C(=O)CCN)CC3)nc3c2cnn3C(C)C)c(=O)[nH]1 [Compound B-62]
  IC50: 300 to 1000 nM

## Cc1cc(C)c(CNC(=O)c2cc(-c3cccc(CN4CCOCC4)c3)nc3c2cnn3C(C)C)c(=O)[nH]1 [Compound A-54]
  IC50: 1000 to 3000 nM

## Cc1cc(C)c(CNC(=O)c2cc(N3CCOCC3)nc3c2cnn3C(C)C)c(=O)[nH]1 [Compound B-98]
  IC50: 1000 to 3000 nM

## Cc1ccc(CNC(=O)c2cc(-c3cccc(CN4CCN(C)CC4)c3)nc3c2cnn3C(C)C)c(=O)[nH]1 [Compound A-100]
  IC50: 10000 to 50000 nM

## Cc1ccc(-n2ncc3c(C(=O)NCc4c(C)cc(C)[nH]c4=O)cc(-c4ccc(N5CCN(C)CC5)nc4)nc32)cc1 [Compound A-65]
  IC50: 3000 to 10000 nM

## Cc1cc(C)c(CNC(=O)c2cc(-c3cccc(COCCN)c3)cc3c2cnn3C2CCCC2)c(=O)[nH]1 [Compound C-23]
  IC50: < 300 nM

## Cc1cc(CN(C)CCN(C)C)c(CNC(=O)c2cccc3c2cnn3C2CCCC2)c(=O)[nH]1 [Compound D-75]
  IC50: 1000 to 3000 nM

## Cc1cc(C)c(CNC(=O)c2cc(Br)cc3c2cnn3C2CCN(C(=O)C(C)(C)C)CC2)c(=O)[nH]1 [Compound D-13]
  IC50: < 300 nM

## Cc1cc(C)c(CNC(=O)c2cc(Br)cc3c2cnn3C2CCN(C(=O)C3CCOCC3)CC2)c(=O)[nH]1 [Compound D-28]
  IC50: 300 to 1000 nM

## Cc1cc(C)c(CNC(=O)c2cc(C3CCN(C4CCN(S(C)(=O)=O)CC4)CC3)nc3c2cnn3C(C)C)c(=O)[nH]1 [Compound B-35, N-((4,6-dimethyl-2-oxo-1,2-dihydropyridin-3-yl)methyl)-1-isopropyl-6-(1′-(methylsulfonyl)-[1,4′-bipiperidin]-4-yl)-1H-pyrazolo[3,4-b]pyridine-4-carboxamide]
  IC50: < 300 nM

## Cc1cc(C)c(CNC(=O)c2cc(-c3ccc(CN(C)C)cc3)cc3c2cnn3C2CCCC2)c(=O)[nH]1 [Compound C-3, 1-cyclopentyl-N-((4,6-dimethyl-2-oxo-1,2-dihydropyridin-3-yl)methyl)-6-(4-((dimethylamino)methyl)phenyl)-1H-indazole-4-carboxamide]
  IC50: < 300 nM

## CC(=O)N1CCC(n2ncc3c(C(=O)NCc4c(C)cc(C)[nH]c4=O)cc(Br)cc32)CC1 [Compound D-59]
  IC50: 300 to 1000 nM

## CNCc1cc(C)[nH]c(=O)c1CNC(=O)c1cccc2c1cnn2C1CCCC1 [Compound D-83]
  IC50: 3000 to 10000 nM

## Cc1cc(C)c(CNC(=O)c2cc(C3CCN(C(=O)CN(C)C)CC3)nc3c2cnn3C(C)C)c(=O)[nH]1 [Compound B-57]
  IC50: 300 to 1000 nM

## Cc1cc(C)c(CNC(=O)c2cc(C(F)(F)F)cc3c2cnn3C2CCCC2)c(=O)[nH]1 [Compound D-11, 1-cyclopentyl-N-((4,6-dimethyl-2-oxo-1,2-dihydropyridin-3-yl)methyl)-6-(trifluoromethyl)-1H-indazole-4-carboxamide]
  IC50: 300 to 1000 nM

## Cc1ccc(CNC(=O)c2cc(-c3cccc(CN(C)CCN(C)C)c3)nc3c2cnn3C(C)C)c(=O)[nH]1 [Compound A-99]
  IC50: 10000 to 50000 nM

## 1-cyclopentyl-N-((4,6-dimethyl-2-oxo-1,2-dihydropyridin-3-yl)methyl)-6-(2,2,6,6-tetramethylpiperidin-4-yl)-1H-pyrazolo[3,4-b]pyridine-4-carboxamide [Compound B-4]
  IC50: < 300 nM

## Cc1cc(C)c(CNC(=O)c2cc(-c3ccc(CN(C)CCCN(C)C)cc3)cc3c2cnn3C2CCCC2)c(=O)[nH]1 [Compound C-17]
  IC50: < 300 nM

## Cc1cc(C)c(CNC(=O)c2cc(-c3cccc(CNC(=O)OC(C)(C)C)c3)nc3c2cnn3C(C)C)c(=O)[nH]1 [Compound A-92]
  IC50: 1000 to 3000 nM

## Cc1cc(C)c(CNC(=O)c2cc(C3=CCN(CCO)CC3)cc3c2cnn3C2CCCC2)c(=O)[nH]1 [Compound D-95]
  IC50: < 300 nM
